Data published in PubChem BioAssay AID248 (DTP/NCI, 2004).
Toxic doses and inconclusive results are not listed. No stated cut-off is given here; in the data, active means T/C of 150% or more; inactive means T/C below 125%.

Tested on: L1210 leukemia ip in BDF1 mice, survival T/C
Assay: NCI In Vivo Anticancer Drug Screen. Data for tumor model L1210 Leukemia (intraperitoneal) in B6D2F1 (BDF1) mice
Details: endpoint: mean survival time, higher = longer survival
Procedure, shortened: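 Tumor was transplanted into mice, which were then dosed with test compound or vehicle alone. Survival was recorded for each group, and the treated figure was expressed relative to the control figure.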

[1] = dose: 100.0 mg/kg/injection, schedule: Q01DX009 (ip), vehicle: saline with Tween-80
[2] = dose: 200.0 mg/kg/injection, schedule: Q01DX009 (ip), vehicle: saline with Tween-80
[3] = dose: 400.0 mg/kg/injection, schedule: Q01DX009 (ip), vehicle: saline with Tween-80
[4] = dose: 100.0 mg/kg/injection, schedule: Q04DX003 (ip), vehicle: saline with Tween-80
[5] = dose: 5.0 mg/kg/injection, schedule: Q01DX001 (ip), vehicle: saline
[6] = dose: 10.0 mg/kg/injection, schedule: Q01DX001 (ip), vehicle: saline
[7] = dose: 20.0 mg/kg/injection, schedule: Q01DX001 (ip), vehicle: saline
[8] = dose: 40.0 mg/kg/injection, schedule: Q01DX001 (ip), vehicle: saline
[9] = dose: 100.0 mg/kg/injection, schedule: Q04DX003 (ip), vehicle: Klucel (hydroxypropylcellulose) (HPC)
[10] = dose: 200.0 mg/kg/injection, schedule: Q04DX003 (ip), vehicle: Klucel (hydroxypropylcellulose) (HPC)
[11] = dose: 400.0 mg/kg/injection, schedule: Q04DX003 (ip), vehicle: Klucel (hydroxypropylcellulose) (HPC)
[12] = dose: 25.0 mg/kg/injection, schedule: Q01DX009 (ip), vehicle: Klucel (hydroxypropylcellulose) (HPC)
[13] = dose: 50.0 mg/kg/injection, schedule: Q01DX009 (ip), vehicle: Klucel (hydroxypropylcellulose) (HPC)
[14] = dose: 100.0 mg/kg/injection, schedule: Q01DX009 (ip), vehicle: Klucel (hydroxypropylcellulose) (HPC)
[15] = dose: 200.0 mg/kg/injection, schedule: Q01DX001 (ip), vehicle: saline
[16] = dose: 100.0 mg/kg/injection, schedule: Q01DX009 (ip), vehicle: saline
[17] = dose: 200.0 mg/kg/injection, schedule: Q01DX009 (ip), vehicle: saline
[18] = dose: 400.0 mg/kg/injection, schedule: Q01DX009 (ip), vehicle: saline
[19] = dose: 200.0 mg/kg/injection, schedule: Q01DX009 (ip), vehicle: Klucel (hydroxypropylcellulose) (HPC)
[20] = dose: 400.0 mg/kg/injection, schedule: Q01DX009 (ip), vehicle: Klucel (hydroxypropylcellulose) (HPC)
[21] = dose: 100.0 mg/kg/injection, schedule: Q04DX002 (ip), vehicle: Klucel (hydroxypropylcellulose) (HPC)
[22] = dose: 200.0 mg/kg/injection, schedule: Q04DX002 (ip), vehicle: Klucel (hydroxypropylcellulose) (HPC)
[23] = dose: 400.0 mg/kg/injection, schedule: Q04DX002 (ip), vehicle: Klucel (hydroxypropylcellulose) (HPC)

Measured: T/C

CC/C(=C(\CC)c1ccc(OCCOS(=O)(=O)c2ccc(C)cc2)cc1)c1ccc(OCCOS(=O)(=O)c2ccc(C)cc2)cc1
inactive: dose: 6.25 mg/kg/injection, schedule: Q04DX002 (ip), vehicle: saline 101 % of control | dose: 12.5 mg/kg/injection, schedule: Q04DX002 (ip), vehicle: saline 105 % of control | dose: 25.0 mg/kg/injection, schedule: Q04DX002 (ip), vehicle: saline 97 % of control

CC(C)C(=O)Nc1cccc(Cl)c1
inactive: [1] 95 % of control | [2] 95 % of control | [3] 101 % of control

OCCOc1c(Cl)c(Cl)c(Cl)c(Cl)c1Cl
inactive: dose: 50.0 mg/kg/injection, schedule: Q01DX009 (ip), vehicle: saline with Tween-80 101 % of control | [1] 94 % of control | [4] 102 % of control | [2] 103 % of control | dose: 200.0 mg/kg/injection, schedule: Q04DX003 (ip), vehicle: saline with Tween-80 97 % of control

C=CC1OC2OC(C)(C)OC2C1O (configuration not stated)
inactive: [5] 91 % of control | [6] 98 % of control | dose: 18.7 mg/kg/injection, schedule: Q01DX001 (ip), vehicle: steriod suspending solution 108 % of control | [7] 93 % of control | dose: 37.5 mg/kg/injection, schedule: Q01DX001 (ip), vehicle: steriod suspending solution 103 % of control | [8] 96 % of control | dose: 75.0 mg/kg/injection, schedule: Q01DX001 (ip), vehicle: steriod suspending solution 109 % of control | dose: 150.0 mg/kg/injection, schedule: Q01DX001 (ip), vehicle: steriod suspending solution 98 % of control | dose: 200.0 mg/kg/injection, schedule: Q01DX001 (ip), vehicle: steriod suspending solution 104 % of control | dose: 400.0 mg/kg/injection, schedule: Q01DX001 (ip), vehicle: steriod suspending solution 103 % of control

COc1ccc(-c2nc(SCc3ccccc3)[nH]c(=O)c2CCO)cc1
inactive: [9] 95 % of control | [10] 88 % of control | [11] 93 % of control

CC(C)NNC(=O)c1ccc(Cl)cc1
inactive: [12] 92 % of control | dose: 25.0 mg/kg/injection, schedule: Q04DX003 (ip), vehicle: Klucel (hydroxypropylcellulose) (HPC) 96 % of control | [13] 93 % of control | dose: 50.0 mg/kg/injection, schedule: Q04DX003 (ip), vehicle: Klucel (hydroxypropylcellulose) (HPC) 89 % of control | [14] 103 % of control | [1] 88 % of control | [9] 94 % of control | [2] 98 % of control | [10] 86 % of control | [3] 90 % of control | [11] 102 % of control

CC(C)=CC(=O)NC(=O)NS(=O)(=O)c1ccc(C)cc1
inactive: [13] 91 % of control | [14] 95 % of control | [9] 115 % of control | [10] 104 % of control

COc1ccc2nc3cc(Cl)ccc3c(NCCCCCN3CCCCC3)c2c1
inactive: [5] 97 % of control | [6] 97 % of control | [7] 101 % of control | [8] 106 % of control | dose: 80.0 mg/kg/injection, schedule: Q01DX001 (ip), vehicle: saline 100 % of control | [15] 94 % of control

Cc1[nH]nc2c(=O)[nH]c3ccccc3c12
inactive: dose: 18.75 mg/kg/injection, schedule: Q01DX001 (ip), vehicle: Klucel (hydroxypropylcellulose) (HPC) 89 % of control | dose: 37.5 mg/kg/injection, schedule: Q01DX001 (ip), vehicle: Klucel (hydroxypropylcellulose) (HPC) 86 % of control

COCCNP(=O)(OC(C)C)OC(C)C
inactive: [16] 97 % of control | [17] 92 % of control | [18] 94 % of control

Cc1c(C)c(C)c(CNNC(=S)Nc2cccc(Cl)c2)c(C)c1C
inactive: [14] 95 % of control | [19] 91 % of control | [20] 91 % of control

c1ccc(NNCC[P+](c2ccccc2)(c2ccccc2)c2ccccc2)cc1
inactive: dose: 15.0 mg/kg/injection, schedule: Q01DX001 (ip), vehicle: carboxymethylcellulose (CMC) 91 % of control

CC(=O)OC1CC(OC2C(O)CC(OC3C(O)CC(OC4CCC5(C)C(CCC6C5CC(O)C5(C)C(C7=CC(=O)OC7)CCC65O)C4)OC3C)OC2C)OC(C)C1OC1OC(CO)C(O)C(O)C1O (configuration not stated)
inactive: dose: 50.0 mg/kg/injection, schedule: Q01DX001 (sc), vehicle: steriod suspending solution 100 % of control | dose: 75.0 mg/kg/injection, schedule: Q01DX001 (ip), vehicle: other 95 % of control | dose: 100.0 mg/kg/injection, schedule: Q01DX001 (sc), vehicle: steriod suspending solution 109 % of control | dose: 150.0 mg/kg/injection, schedule: Q01DX001 (ip), vehicle: other 97 % of control | dose: 200.0 mg/kg/injection, schedule: Q01DX001 (sc), vehicle: steriod suspending solution 103 % of control | dose: 300.0 mg/kg/injection, schedule: Q01DX001 (ip), vehicle: other 93 % of control | dose: 400.0 mg/kg/injection, schedule: Q01DX001 (sc), vehicle: steriod suspending solution 105 % of control

[Br][Hg][CH2]COC[CH2][Hg][Br]
inactive: dose: 6.25 mg/kg/injection, schedule: Q01DX009 (ip), vehicle: Klucel (hydroxypropylcellulose) (HPC) 103 % of control | dose: 12.5 mg/kg/injection, schedule: Q01DX009 (ip), vehicle: Klucel (hydroxypropylcellulose) (HPC) 93 % of control | [12] 112 % of control

O=C1OC(=O)C2C1C1c3ccccc3C13c1ccccc1C23 (configuration not stated)
inactive: dose: 100.0 mg/kg/injection, schedule: Q01DX001 (ip), vehicle: saline 92 % of control | [16] 110 % of control | [15] 94 % of control | [17] 100 % of control | dose: 400.0 mg/kg/injection, schedule: Q01DX001 (ip), vehicle: saline 97 % of control | [18] 89 % of control

CCOC(=O)c1cnc(C)nc1Nc1ccccc1I
inactive: [9] 106 % of control | [10] 97 % of control | [11] 101 % of control

O=C(N/N=C/c1cccc2ccccc12)c1ccc(O)cc1
inactive: [21] 100 % of control | [22] 100 % of control | [23] 103 % of control

c1ccc(-n2nc3c(c2-c2ccc(OCCN4CCCC4)cc2)CCCc2ccccc2-3)cc1
inactive: [4] 88 % of control

c1ccc([B-](c2ccccc2)([C+]2CCCCC2)N2CCCCC2)cc1
inactive: dose: 75.0 mg/kg/injection, schedule: Q01DX001 (ip), vehicle: carboxymethylcellulose (CMC) 104 % of control | dose: 150.0 mg/kg/injection, schedule: Q01DX001 (ip), vehicle: carboxymethylcellulose (CMC) 100 % of control

CCCCCCCCCCCCC(C)C(=O)O (configuration not stated)
inactive: dose: 25.0 mg/kg/injection, schedule: Q04DX002 (ip), vehicle: Klucel (hydroxypropylcellulose) (HPC) 96 % of control | dose: 50.0 mg/kg/injection, schedule: Q04DX002 (ip), vehicle: Klucel (hydroxypropylcellulose) (HPC) 93 % of control | [14] 105 % of control | [21] 101 % of control | [19] 91 % of control | [22] 98 % of control | [20] 91 % of control | [23] 98 % of control
